Test results: BindingDB's records for patent US20250136596 (Insilico Medicine IP, 2025)
pIC50: −log10 of the molar value.

Each compound was assayed against T1, Membrane-associated tyrosine- and threonine-specific cdc2-inhibitory kinase (Homo sapiens, UniProt Q99640) (assay: PKMYT1 HTRF Assay).
T1 sequence (Q99640 whole entry): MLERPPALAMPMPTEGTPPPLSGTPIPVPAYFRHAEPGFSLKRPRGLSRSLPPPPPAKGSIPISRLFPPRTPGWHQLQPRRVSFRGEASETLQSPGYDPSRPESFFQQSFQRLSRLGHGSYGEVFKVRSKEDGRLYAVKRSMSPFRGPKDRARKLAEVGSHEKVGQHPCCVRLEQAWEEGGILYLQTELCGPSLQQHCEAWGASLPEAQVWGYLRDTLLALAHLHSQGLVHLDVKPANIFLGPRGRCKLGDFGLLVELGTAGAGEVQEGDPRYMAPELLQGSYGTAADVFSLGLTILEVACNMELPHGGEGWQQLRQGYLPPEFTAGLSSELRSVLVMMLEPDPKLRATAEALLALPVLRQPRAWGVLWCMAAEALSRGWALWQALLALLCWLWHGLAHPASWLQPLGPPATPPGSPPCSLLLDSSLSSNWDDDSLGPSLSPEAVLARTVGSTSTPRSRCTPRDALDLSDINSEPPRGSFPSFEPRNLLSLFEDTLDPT
Experimental: Compound serial dilution is performed by Echo, and the final concentrations vary from 10 μM to 0.5 nM. This was filled by the addition of 5 μL/well of Enzyme solution to the assay plate containing the compound. The plate was centrifuged at 1000 rpm for 1 minute, and incubate 15 minutes at 25 […]. Then 5 μL/well of tracer solution (Tracer 178) was added to initiate the reaction, and incubate for 60 minutes at 25° C. Next 5 μL GST-Tb was added into the assay plate, the plate was centrifuged at 1000 rpm for 1 minute, and incubate for 15 minutes at 25 […]. The assay plate was read on Envision.
Compound `Cc1ncc(-c2cc3c(Cl)c(-c4c(C)ccc(O)c4C)cnc3[nH]2)cn1` [US20250136596, Example 23] has a pIC50 greater than 8.00. `Cc1ncc(-c2[nH]c3ncc(-c4c(C)ccc(O)c4C)c(C#N)c3c2F)cn1` [US20250136596, Example 35] gave a pIC50 greater than 8.00. For `CNc1ncc(-c2cc3c(C#N)c(-c4c(C)ccc(O)c4C)cnc3[nH]2)cn1` [US20250136596, Example 41], the pIC50 was greater than 8.00. In the case of `COc1ncc(-c2cc3c(C#N)c(-c4c(C)ccc(O)c4C)cnc3[nH]2)cn1` [US20250136596, Example 51], the pIC50 was greater than 8.00. With `Cc1ccc(O)c(C)c1-c1cnc2[nH]c(-c3cncc(C#N)c3)cc2c1C#N` [US20250136596, Example 61] the pIC50 was greater than 8.00. For `Cc1ccc(O)c(C)c1-c1cnc2[nH]c(-c3cnc(N)c(C(F)(F)F)c3)cc2c1C#N` [US20250136596, Example 62], the pIC50 was greater than 8.00. With `Cc1ccc(O)c(C)c1-c1cnc2[nH]c(-c3cnc(S(C)(=O)=O)nc3)cc2c1C#N` [US20250136596, Example 95] the pIC50 was greater than 8.00. `Cc1ncc(-c2[nH]c3ncc(-c4c(C)ccc(O)c4C)c(C#N)c3c2C)cn1` [US20250136596, Example 107] was tested, and the pIC50 was greater than 8.00. Compound `Cc1ccc(O)c(C)c1-c1cnc2[nH]c(-c3cnc4cn[nH]c4c3)cc2c1C#N` [US20250136596, Example 124] has a pIC50 greater than 8.00.
